According to patent US12553889B2, “Small molecules targeting the intrinsically disordered structural ensemble of α-synuclein protect against diverse α-synuclein mediated dysfunctions” (The Regents of the University of California, priority 2019, dated 2026):
Entries after “also recorded” stand apart in the source; their conditions may differ.

Experiments:
αSyn [1] = molecular target: T1, αSyn (Homo sapiens, UniProt P37840); experiment: αSyn fibrillization assay (Thioflavin T fluorescence); assay type: biochemical; set-up: made in house; host or cells: E. coli BL21(DE3), pET-21d; conditions: compound at 300 μM, 70 μM αSyn, vs 0.5% DMSO control
Procedure: Fibrillization assays. Prior to each aggregation assay, purified αSyn at 5 mg/mL was treated with 6M guanidine and dialyzed 36 hours in a 3500 MW cutoff Slide-A-lyzer with three changes of 20 mM sodium phosphate and 100 mM NaCl pH 7.4 buffer. αSyn was centrifuged at 130,000 g for 40 minutes in a Beckman Ultracentrifuge to remove seeding species and supernatant used for assays. For initial testing, 60 mM compound in DMSO was diluted to 300 μM in 0.5% DMSO and controls contained equivalent DMSO concentrations. Assay samples contained 20 μM Thioflavin T, filtered through a 0.45 μm Acrodisc filter prior to each assay, 70 μM αSyn in 20 mM sodium phosphate and 100 mM NaCl pH 7.4. One teflon bead, (0.125″ PTFE, Grade 2 polished) was placed in each well of a 96 well black with clear bottom assay plate (Corning) in a total volume of 500 μL. The plate was sealed with Mylar and parafilm, placed at 37° C. in a Tecan F200Pro Plate Reader and shaken at an amplitude of 6 mm for 120 hours continuously except for a brief time during reading of the plate. Thioflavin T fluorescence was detected by excitation at 440 nm and reading emissions at 485 nm each 60 minutes throughout the assay. To generate αSyn seeds for the seeding assays, αSyn at 10 mg/mL was incubated with stirring at 43° C. for 24 hours followed by exhaustive sonication. 1% (by mass) of seeds were added to the fibrillization assay. Samples were plated in quadruplicate, and the replicates averaged for each experiment for plotted data. Data were analyzed in Excel using XL-fit sigmoidal model #600 and when normalized, comparing fluorescence values at 50 hours for compounds as a percentage of DMSO control.
α-Syn for the Fibrillization assay. Wildtype human αSyn was produced from a pET-21d plasmid (Millipore, Burlington, MA) in E. coli BL21(DE3) cells induced by addition of 1 mM […] and incubated at 16° C. overnight. Cells were harvested by centrifugation at 4,000×g for 10 minutes and stored at −80° C. Frozen cells expressing αSyn protein were resuspended in 50 mM Tris, pH 7.5, 1 mM TCEP, 1 mM EDTA, and 1 mM L-Methionine and lysed using a microfluidizer. Lysate was centrifuged at 7000×g for 0.5 hours at 21° C. The supernatant was boiled in a water bath for 15 minutes, cooled on ice and centrifuged at 45,000 g for 30 min. The supernatant was filtered through a 0.2 μm Corning filter and subjected to ion exchange chromatography using a Capto ImpRes Q (GE Healthcare, Upssala, Sweden) anion exchange (IEX) column at ambient temperature. The column was eluted with a gradient of 100 column volumes from 0 to 1M NaCl using an AKTA Explorer 100 Liquid Chromatography System (GE Healthcare, Uppsala, Sweden). Pure αSyn fractions were desalted to 50 mM KPO4, pH 7.5 and 50 mM NaCl using PD-10 columns (GE Healthcare, Chicago, IL) and concentrated to 5 mg/mL or 10 mg/ml (3K MWCO, Amicon Ultra, Millipore, Burlington, MA).
Statistical Analysis of compound activity in Fibrillization assays. For the analyses of compound activity in the αSyn fibrillization assay, the relative fluorescence unit (RFU) data obtained from compounds were compared to those of DMSO, to identify those that are statistically different from DMSO at various time points. Each experiment contained 4 replicates of each compound and of DMSO control. […] A repeated measures analysis of variance was performed on logarithmic transformed data using a linear mixed effects model which included Compound, Time, Replicate (Compound) and Compound*Time. The covariance structure across time that minimized the corrected Akaike Information Criterion (AICC) was used and the Kenward and Roger method was used to determine the appropriate degrees of freedom. Each compound mean was compared to the DMSO mean using Bonferroni multiplicity adjusted t-tests. Statistical analyses were conducted using the MIXED procedure in SAS 9.1 (SAS Institute Inc. Cary, NC, USA). Statistical significance refers to p-value<0.05.

[2] = test system: H4 neuroglioma cells over-expressing αSyn; experiment: Phagocytosis assay; assay type: cell-based, human; conditions: for phagocytosis restored, percent of that in cells with endogenous αSyn levels (control): phagocytosis inhibited by αSyn overexpression; for reversal of αSyn mediated inhibition of phagocytosis: 100 nM
Procedure: A human neuroglioma H4 cell-derived cell line stably over-expressing αSyn from a tetracycline inducible promoter was generated using the tet inducible TRex system (Invitrogen division of Life Technologies) and grown in serum-free X-VIVO media (Lonza Group, Basel, Switzerland). Cells were seeded in 96-well plates at densities yielding 75 to 90% confluency during the phagocytosis assay. The next day, compound was added along with 5 μg/ml tetracycline to induce αSyn overexpression. Cells were cultured overnight and the next day were fed […] red fluorescent beads (Invitrogen, Carlsbad, CA) for 90 minutes at a cell-to-bead ratio of 1:10. Plates were gently washed with 100 μl/well media twice, fixed and stained with HEMA3 (Thermo Fisher, Waltham, MA). Plates were dried overnight and read on an ArrayScan (Thermo Fisher, Waltham, MA). As the HEMA3 stain absorbs light, the internalized beads are less fluorescent than the outside beads. Tet/non-tet and 484228 samples were run on each plate.

[3] = test system: H4 neuroglioma cells over-expressing αSyn; conditions: earlier report; cited from earlier work
αSyn [4] = molecular target: T1, αSyn; set-up: made in house; host or cells: E. coli; conditions: prior study (Toth et al 2014); cited from earlier work
αSyn [5] = molecular target: T1, αSyn; set-up: made in house; host or cells: E. coli; conditions: prior study (Toth et al 2014); cited from earlier work; remark: listed apart in the source

SMILES	impact on αSyn fibrillization (thioflavin fluorescence signal) (αSyn [1])	phagocytosis restored, percent of that in cells with endogenous αSyn levels (control) [2]	reversal of αSyn mediated inhibition of phagocytosis [2]	also measured
CNC(=O)C[C@H](N)Cc1cccc2ccccc12 [Compound 573416, (R)-3-amino-N-methyl-4-(naphthalen-1-yl)butanamide]	no impact on αSyn fibrillization			
CNC(=O)CC(N)c1ccc(-c2ccccc2)cc1 (stereo not drawn) [Compound 581674, 3-([1,1′-biphenyl]-4-yl)-3-amino-N-methylpropanamide]	inhibit fibrillization; also recorded: blocks αSyn fibrillization	100%		
NC(=O)[C@H](Cc1c[nH]cn1)NC(=O)c1ccccn1 [Compound 573418, (S)-N-(1-amino-3-(1H-imidazol-4-yl)-1-oxopropan-2-yl)picolinamide]			complete reversal	
NC(=O)[C@@H](NC(=O)c1csc(-c2ccccc2)n1)C1CCCCC1 [Compound 573419, (S)-N-(2-amino-1-cyclohexyl-2-oxoethyl)-2-phenylthiazole-4-carboxamide]			complete reversal	
O=S(=O)(Nc1ccc(F)cc1)c1ccccc1 [Compound 484228, N-(4-fluorophenyl)benzenesulfonamide]		≤ 80%		restoration of phagocytosis in the face of αSyn overexpression [3]: restored normal phagocytosis; reversal of αSyn over-expression mediated neurodegeneration (αSyn [4]): protective activity; impact on aggregation of the recombinant protein (αSyn [5]): without impact on aggregation
